Consider six molecules from ChEMBL document CHEMBL5715954, “Silencing c-Myc translation as a therapeutic strategy through targeting PI3Kδ and CK1ε in hematological malignancies” (Blood, 2017).

Assay [1] concerns the target Serine/threonine-protein phosphatase 2A catalytic subunit alpha isoform (Homo sapiens) (UniProt P67775). Kind of assay: Inhibition of PP2A in human LY7 cells assessed as increase in CK1epsilon autophosphorylation by Western blot analysis. It is filed as cell-based. Particulars: time lower […], time upper 30.0 min. (In general: In western blotting, separated proteins are transferred to a membrane and probed.)

Assay [2] concerns the target T1, Casein kinase I isoform epsilon (Homo sapiens, UniProt P49674). Kind of assay: Inhibition of recombinant human full-length N-terminal GST-tagged CK1epsilon expressed in baculovirus infected Sf9 insect cells using casein as substrate measured after 60 mins by ADP-glo kinase assay. In general terms: In ADP-Glo the light output rises with the ADP produced.
Target sequence in this assay (P49674 whole entry, canonical isoform): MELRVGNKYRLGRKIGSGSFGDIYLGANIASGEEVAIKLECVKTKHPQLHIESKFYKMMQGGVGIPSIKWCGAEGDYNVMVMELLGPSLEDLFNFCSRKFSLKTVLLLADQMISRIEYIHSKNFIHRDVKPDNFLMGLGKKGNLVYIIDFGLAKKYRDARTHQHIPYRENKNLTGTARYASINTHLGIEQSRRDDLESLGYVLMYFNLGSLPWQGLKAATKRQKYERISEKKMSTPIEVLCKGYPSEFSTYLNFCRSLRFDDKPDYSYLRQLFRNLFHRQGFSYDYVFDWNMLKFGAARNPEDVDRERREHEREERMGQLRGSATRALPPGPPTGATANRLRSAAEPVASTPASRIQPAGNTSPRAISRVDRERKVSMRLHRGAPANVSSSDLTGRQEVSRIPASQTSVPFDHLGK
In assay [3] the target is T1, Casein kinase I isoform epsilon. Kind of assay: Inhibition of CK1epsilon in human LY7 cells assessed as reduction in CK1epsilon autophosphorylation at 1 uM preincubated for 1 hr followed by addition of PP2A inhibitor calyculin A and measured after 15 to 60 mins by Western blot analysis. It is filed as cell-based. Particulars: time lower 75.0 min, time upper […].
Target sequence in this assay (P49674 whole entry, looked up, canonical isoform): as the sequence (P49674 whole entry, canonical isoform) above
The target is the same in assay [4]. Kind of assay: Inhibition of CK1epsilon in human LY7 cells assessed as reduction in c-Myc expression at 25 uM incubated for 24 hrs in presence of […] inhibitor PF4800567 by Western blot analysis. It is filed as cell-based.
Target sequence in this assay (P49674 whole entry, looked up, canonical isoform): as the sequence (P49674 whole entry, canonical isoform) above
The target is the same in assay [5]. Kind of assay: Inhibition of CK1epsilon in human LY7 cells assessed as reduction in 4E-BP1 phosphorylation at 25 uM incubated for 24 hrs in presence of […] inhibitor PF4800567 by Western blot analysis. It is filed as cell-based.
Target sequence in this assay (P49674 whole entry, looked up, canonical isoform): as the sequence (P49674 whole entry, canonical isoform) above
The target is the same in assay [6]. In words: Inhibition of CK1epsilon in human OCILY7 cells transfected with c-myc-5'-UTR-luciferase construct assessed as reduction in c-myc translation at 15 uM incubated for 24 hrs by luciferase reporter gene assay. It is filed as cell-based. A general note: In a reporter assay the amount or activity of a reporter protein is the signal.
Target sequence in this assay (P49674 whole entry, looked up, canonical isoform): as the sequence (P49674 whole entry, canonical isoform) above
The target is the same in assay [7]. In words: Inhibition of CK1epsilon in human LY7 cells assessed as reduction in c-Myc expression at 15 to 50 uM measured after 24 hrs by Western blot analysis. Format: cell-based. The following applies: dose 15-50 µM.
Target sequence in this assay (P49674 whole entry, looked up, canonical isoform): as the sequence (P49674 whole entry, canonical isoform) above
The target of assay [8] is Myc proto-oncogene protein (Homo sapiens) (UniProt P01106). In words: Inhibition of c-Myc in human LY10 cells assessed as reduction in eIF4B expression at 2 nM incubated for 24 hrs by Western blot analysis. It is filed as cell-based.
Sequence of Myc proto-oncogene protein (Homo sapiens) (P01106 whole entry): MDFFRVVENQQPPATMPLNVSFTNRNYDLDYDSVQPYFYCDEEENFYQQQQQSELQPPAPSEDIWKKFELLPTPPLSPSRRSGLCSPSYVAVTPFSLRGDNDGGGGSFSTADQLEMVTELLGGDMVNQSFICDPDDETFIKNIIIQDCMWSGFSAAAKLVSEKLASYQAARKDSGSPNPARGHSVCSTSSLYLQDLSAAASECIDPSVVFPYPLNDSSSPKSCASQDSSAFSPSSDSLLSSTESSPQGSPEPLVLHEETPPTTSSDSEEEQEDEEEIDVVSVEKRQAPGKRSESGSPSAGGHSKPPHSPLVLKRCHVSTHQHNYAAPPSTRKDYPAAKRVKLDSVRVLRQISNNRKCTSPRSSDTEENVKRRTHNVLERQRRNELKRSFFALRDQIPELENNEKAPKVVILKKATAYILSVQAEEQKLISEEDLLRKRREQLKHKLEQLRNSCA
The target is the same in assay [9]. Kind of assay: Inhibition of c-Myc in human LY7 cells assessed as reduction in eIF4B expression at 5 nM incubated for 24 hrs by Western blot analysis. It is filed as cell-based.
Assay [10] has the same target. Kind of assay: Inhibition of c-Myc in human LY7 cells assessed as reduction in E2F1 expression at 5 nM incubated for 24 hrs by Western blot analysis. Format: cell-based.
Assay [11] shares this target. In words: Inhibition of c-Myc in human LY10 cells assessed as reduction in E2F1 expression at 2 nM incubated for 24 hrs by Western blot analysis. It is filed as cell-based.
For assay [12], the target named is T1, Casein kinase I isoform epsilon. In words: Inhibition of CK1epsilon in human LY7 cells assessed as reduction in CK1epsilon autophosphorylation at 10 to 25 uM preincubated for 1 hr followed by addition of PP2A inhibitor calyculin A and measured after 15 to 60 mins by Western blot analysis. Format: cell-based. The following applies: dose 10-25 µM, time lower 75.0 min, time upper […].
Target sequence in this assay (P49674 whole entry, looked up, canonical isoform): as the sequence (P49674 whole entry, canonical isoform) above

The target is the same in assay [13]. In words: Inhibition of recombinant human full-length N-terminal GST-tagged CK1epsilon expressed in baculovirus infected Sf9 insect cells at 50 uM using casein as substrate measured after 60 mins by ADP-glo kinase assay relative to control.

Active and inactive are the calls of the source. The rule behind the calls is not given here.

As a reminder, the inhibition is the change of the read-out against control, counted positive when it falls. The term EC50 denotes the concentration that produces a half-maximal response.

Sequence of Serine/threonine-protein phosphatase 2A catalytic subunit alpha isoform (Homo sapiens) (P67775 whole entry, canonical isoform): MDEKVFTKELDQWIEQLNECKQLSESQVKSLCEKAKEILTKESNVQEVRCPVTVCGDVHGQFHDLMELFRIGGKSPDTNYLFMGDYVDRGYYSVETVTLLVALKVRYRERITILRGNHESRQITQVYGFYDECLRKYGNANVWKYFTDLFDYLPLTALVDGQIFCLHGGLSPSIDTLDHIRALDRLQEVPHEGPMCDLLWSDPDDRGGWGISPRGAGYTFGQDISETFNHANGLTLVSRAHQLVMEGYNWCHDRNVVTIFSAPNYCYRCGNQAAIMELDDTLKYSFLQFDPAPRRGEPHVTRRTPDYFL

`COC[C@@H]([C@H](O)[C@H](O)C(=O)NCC[C@H](C)c1nc(/C=C/C[C@@H]2O[C@]3(C[C@@H](O)[C@@H]2C)O[C@H]([C@H](C[C@H](O)[C@H](C)[C@H](O)[C@H](C)/C=C(C)/C(C)=C/C=C/C(C)=C\C#N)OC)[C@H](OP(=O)(O)O)C3(C)C)co1)N(C)C`: the inhibition entry in [1] was “Dose-Dependent Effect”.

Take `Nc1ncnc2c1c(COc1cccc(Cl)c1)nn2C1CCOCC1`: in assay [2], the EC50 came to 0.0074 µM. In addition, the inhibition entry in assay [3], in assay [4], in [5] and in assay [7] was “Active” throughout. Further, in [6], the inhibition result was “inactive”.

Regarding `CC(C)C[C@H](NC(=O)[C@H](Cc1ccccc1)NC(=O)c1cnccn1)B(O)O`, the inhibition result in assay [8], in [9], in assay [10] and in assay [11] was “inactive” throughout.

Regarding `CC(C)Oc1ccc(-c2nn([C@@H](C)c3nc4cccc(F)c4c(=O)n3-c3ccccc3)c3ncnc(N)c23)cc1F`, the half-maximal effective concentration (EC50) in [2] turned out to be 9.36 µM. Further, the inhibition entry in assay [12] is “Active”.

`CC[C@@H](c1nc2cccc(F)c2c(=O)n1-c1ccccc1)n1nc(-c2ccc(OC(C)C)c(F)c2)c2c(N)ncnc21`: the EC50 in assay [2] is 81.2 µM. Moreover, the inhibition in assay [13] was less than 50%.

As to `CC(C)C[C@H](NC(=O)[C@H](CCc1ccccc1)NC(=O)CN1CCOCC1)C(=O)N[C@@H](Cc1ccccc1)C(=O)N[C@@H](CC(C)C)C(=O)[C@@]1(C)CO1`, the inhibition result in assay [8], in assay [9], in assay [10] and in [11] was “inactive” in each case.
